Data published in patent US8178688B2, “Benzamidine derivatives, process for the preparation thereof and pharmaceutical composition comprising the same” (Dong Wha Pharmaceutical Co., Ltd., priority 2004, dated 2012).
Where two headings read alike, the source gives them in different places.

Columns and labels:
[1] = test system: osteoclast differentiation; test: Inhibitory effects on osteoclast differentiation (co-culture of bone marrow cells with osteoblast, TRAP staining); format: cell-based, mice; conditions: co-culture of bone marrow cells and osteoblast, 7 days, TRAP-positive osteoclasts versus controls; for inhibition at 1 µM: Mus musculus, Osteoclast, 168 h, read-out: % inhibitory activity on osteoclastogenesis
Summary of the method: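 Percent inhibition versus control is based on microscope counts of TRAP-positive osteoclasts (3 or more nuclei) after 7 days of compound exposure. Cultures paired ddY mouse marrow cells with ICR calvarial osteoblasts, driven by dexamethasone 10^−7M plus vitamin D3 10^−8M, with medium and compound changed every 2–3 days.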

[2] = test system: ovariectomized ddY mouse; test: Therapeutic effect in the ovariectomized osteoporetic mouse model (trabecular bone volume of the femur); format: in vivo, ddY mice; conditions: 50 mg/kg/day oral gavage for 4 weeks from 4 weeks after ovariectomy, salts (methansulfonic acid or HCl); for change in vivo at 50 mg/kg: Mus musculus, 672 h, read-out: Changes on TBV (% changes vs vehicle control)
Description: The therapeutic effects of each benzamidine derivates were evaluated on the ovariectomized ddY mouse. Benzamidine derivates were dosed from 4 weeks after operation for 4 weeks and the changes on the trabecular bone volume (TBV) of the femur were observed via histomorphometry.
Female ddY mice (6-wk old upon receipt, SLC, Japan) were used after acclimatization for 7 days. Animals were allocated 5 per polycarbonate cage in a temperature (20-25° C.) and humidity (30-35%) controlled room. Light:dark cycle was 12 hr:12 hr and feed (Samyang, Korea) and water were supplied free to access.
Salts of benzamidine derivates (Methansulfonic acid or HCl) were used for the test substances of this invention. Test substances are dissolved and/or suspended in injectable distilled water and administered at a dosage volume of 10 ml/kg by oral gavage. All test substances are dosed from 4 weeks after operation for 4 weeks at 50 mg/kg/day.
To induce estrogen-deficient osteoporosis, bilateral ovaries are removed and then closed by routine methods. Operation was conduct under Ketamine hydrochloride and xylazine hydrochloride anesthesia.
The left femur of each mouse were separated at sacrifice, and fixed in 10% neutral buffered formalin (NBF), then decalcified in decalcifying solution (24.4% formic acid, and 0.5N sodium hydroxide) for 5 days (mixed decalcifying solution was exchanges once a day for 5 days). After the dexalcification, the femur was embedded in paraffin, sectioned (3˜4 μm) and stained with hematoxylin-eosin stain.
TBV was calculated using automated image analysis (analySIS Image Processing; SIS, Germany) under magnification of ×200 in the uniform area of trochlea epiphyseal regions (growth plate regions were excluded) of prepared histological specimens. TBV was calculated as percentage (%) levels.
The changes of TBV compared to that of vehicle control are calculated as following Equation 1 to help the understanding of the efficacy of test substances. Percentage changes=[((TBV of a−TBV of b)/TBV of b)×100] Equation 1

[3] = test system: mouse models of ovalbumin-induced asthma; test: Therapeutic effect in mouse model of asthma induced with ovalbumin (lung weight, total leukocytes in blood and BALF); format: in vivo, C57BL/6 mice; conditions: for Changes on the lung weight, Absolute: 200 mg/kg oral once a day from sensitization, vehicle control 0.134 ± 0.012, sham 0.110 ± 0.009; for Changes on the lung weight, Relative (%) / Total leukocytes in peripheral blood (×10^3/1 mm^3) / Total leukocytes in BALF (×10^5/1 ml): 200 mg/kg oral once a day; for Changes on the lung weight, Relative (%): % of body weight, vehicle control 0.780 ± 0.103, sham 0.694 ± 0.049; for Total leukocytes in peripheral blood (×10^3/1 mm^3): vehicle control 14.49 ± 0.88, sham 10.27 ± 0.93; for Total leukocytes in BALF (×10^5/1 ml): vehicle control 75.68 ± 4.67, sham 51.75 ± 2.15
Description: The benzamidine compounds were assated for therapeutic effect on allergic inflammation in mouse models of ovalbumin-induced asthma. Starting on the day of immunization the benzamidine compounds were dosed for 17 consecutive days. The experimental animals were re-exposed to ovalbumin 14 days after the sensitization and then sacrificed 3 days after the re-exposure. Changes in lung weight, cellular components of peripheral blood and bronchoalveolar lavage fluid, and lung histopathology were observed.
A total of 110 female C57BL/6 mice (7-week-old, SLC, Japan) were adapted to a laboratory environment for 6 days before being used in earnest experiments. While being housed at a densirt of five in a plastic cage, the experimental animals were breed in a breeding room with controlled temperature (20-25° C.) and humidity (30-35%). Under light-dark cycles of 12 hours, mice were allowed to have free access to feedstuff and tap water. While asthma was induced in 100 mice by ovalbumin, 10 mice were used as a non-treated group.
200 mg of benzamidine compounds (Methansulfonic acid or Hydrochloride) were completely dissolved in 5 ml of sterilized distilled water. The benzamidine compound in the solutions was orally administered at doses of 200 mg per kg of body weight once a day from the day of the sensitization with ovalbumin. The control group was administered with equal volumes of sterilized distilled water in the same manner.
A solution of 200 μg of ovalbumin (Grade VI; Sigma, st. Louis, Mo., USA) and 180 mg of aluminium hydroxide (Al(OH)3, dried powder gel; Aldrich, Milwaukee, USA) in 4 ml of physiological saline was allowed to stand at 4° C. overnight and was administered to the experimental animals (200 μl, abdominal injection) for sensitization. As for the non-treated group, a solution of only aluminium hydroxide in saline was injected. 15 days after sensitization, a 1.5% ovalbumin solution was sprayed in air using a nebulizer, followed by exposing the experimental animals to the spray for 10 min to induce asthma therein. The non-treated group was exposed only to saline in the same manner. All the experimental animals were sacrificed 3 days after the exposure.
On the final day of experiment, the lungs were separated form adjacent organs. The removed lungs were weight among individual animals, the relative weight of the lungs was calculated as a percentage of body weight using the following Equation 3. Relative weight of Lung(%)=(Absolute lung weight/Body weight)×100 Equation 3
On the final day of experiment, all the experimental animals were etherized and underwent laparotomy to expose the abdominal vena cava, from which 1 ml of blood was the taken. Using a hemocytometer, a blood sample was measured for total leukocyte counts in a ×10^3/1 mm^3 units.
On the final day of experiment, secretions present in bronchi and alveola were examined for cyrological constitution. After veing etherized, the experimental animals were operated to open the cervical region and the thorax. The jugular vein was allowed to bleed, followed by endotracheal intubation. 3 ml of phosphate buffered saline was injected twice through the tube and the thorax was massaged for 30 sec to obtain cell suspension from the lungs. Using a hemocytometer, a […] was measured for total leukocyte counts in a ×10^5/1 ml units.

[4] = test system: cells; test: Cytotoxicity test (MTT); format: cell-based; conditions: 10^−6M, 72 hrs, compared with the control group
Description: Cytotoxic effect of benzamidine derivatives was evaluated by the experiment described below.
The test substance was diluted in appropriate solvent at 10^−2M concentration. […] Cells to be used in cytotoxitic test were plated on a 96-well microplate in a dose of 1×10^4 cell/100 μL per well and cultured for 72 hrs. 25 μL of MTT [3-(4,5-dimethyl-2-thiazolyl)-2,5-diphenyl-2H-tetrazolium bromide] dissolved in PBS at 2 mg/mL were added before 4 hrs of the end of culture. After reaction, the plates were centrifuged, medium was decanted and 100 μL of DMSO was added to dissolve formazan. Lastly, the absorbance of developed plates was measured at 540 nm.

Row | SMILES | change in vivo at 50 mg/kg [2] | inhibition at 1 µM ([1]; 1 m) | other results
1 | N=C(NO)c1ccc(OCCCCCOc2ccc(-c3csc(-c4ccccc4)n3)cc2)cc1 [Example 6, N-hydroxy-4-(5-[4-(2-phenyl-1,3-thiazol-4-yl)phenoxy]pentoxy)-benzamidine] | – | – | melting point: 133 to 141 °C
2 | Cc1nc(-c2ccc(OCCCCCOc3ccc(C(=N)NO)cc3)cc2)c(C2CCCC2)s1 [Example 43, N-hydroxy-4-(5-[4-(5-cyclopentyl-2-methyl-1,3-thiazol-4-yl)phenoxy]pentoxy)-benzamidine] | 155% | – | inhibition at 1 µM ([1]; 1 μm): 98.6%
3 | CCCNc1nc(-c2ccc(OCCCCCOc3ccc(C(=N)NO)cc3)cc2)c(CC2CCCC2)s1 [Example 111, N-hydroxy-4-(5-[4-(5-cyclopentylmethyl-2-propylamino-1,3-thiazol-4-yl)phenoxy]pentoxy)-benzamidine] | 69.3% | 99.5% | –
4 | CCCCc1sc(N(C)Cc2cccnc2)nc1-c1ccc(OCCCCCOc2ccc(C(=N)NO)cc2)cc1 [Example 145, N-hydroxy-4-(5-[4-(5-butyl-2-(methyl-(pyridin-3-yl-methyl)amino)-1,3-thiazol-4-yl)phenoxy]pentoxy)-benzamidine] | 91.7% | 96.2% | –
5 | CCCCc1sc(N(C)C)nc1-c1ccc(OCCCCCOc2ccc(C(=N)NO)cc2)cc1 [Example 152, N-hydroxy-4-(5-[4-(5-butyl-2-dimethylamino-1,3-thiazol-4-yl)phenoxy]pentoxy)-benzamidine] | 71.5% | 83.8% | –
6 | Cc1sc(N2CCOCC2)nc1-c1ccc(OCCCCCOc2ccc(C(=N)NO)cc2)cc1 [Example 165, N-hydroxy-4-(5-[4-(5-methyl-2-morpholino-1,3-thiazol-4-yl)phenoxy]pentoxy)-benzamidine] | 37.5% | 66.9% | –
7 | N=C(NO)c1ccc(OCCCCCOc2ccc(-c3nc(N4CCCCC4)sc3CC3CCCC3)cc2)cc1 [Example 167, N-hydroxy-4-(5-[4-(5-cyclopentylmethyl-2-piperdino-1,3-thiazol-4-yl)phenoxy]pentoxy)-benzamidine] | – | – | % inhibitory activity on osteoclastogenesis [1]: 99.0%; Changes on TBV (% changes vs vehicle control) [2]: 55.2%
8 | N=C(NO)c1ccc(OCCCCCOc2ccc(-c3nc(N4CCOCC4)sc3CC3CCCC3)cc2)cc1 [Example 168, N-hydroxy-4-(5-[4-(5-cyclopentylmethyl-2-morpholino-1,3-thiazol-4-yl)phenoxy]pentoxy)-benzamidine] | 56.6% | 87% | –
9 | CC(C)c1sc(N2CCOCC2)nc1-c1ccc(OCCCCCOc2ccc(C(=N)NO)cc2)cc1 [Example 169, N-hydroxy-4-(5-[4-(5-isopropyl-2-morpholino-1,3-thiazol-4-yl)phenoxy]pentoxy)-benzamidine] | 186% | 83.3% | Changes on the lung weight, Absolute [3]: 0.113 ± 0.003 g; Changes on the lung weight, Relative (%) [3]: 0.696 ± 0.032 %; Total leukocytes in peripheral blood (×10^3/1 mm^3) [3]: 13.20 ± 2.22 ×10^3/1 mm^3; Total leukocytes in BALF (×10^5/1 ml) [3]: 72.25 ± 7.95 ×10^5/1 ml
10 | Cc1nc(-c2ccc(OCCCCCNc3ccc(C(=N)NO)cc3)cc2)c(C(C)C)s1 [Example 177, N-hydroxy-4-(5-[4-(5-isopropyl-2-methyl-1,3-thiazol-4-yl)phenoxy]-pentylamino)-benzamidine] | 88.7% | 96.1% | –
11 | Cc1nc(-c2ccc(OCCCN3CCN(CCCOc4ccc(C(=N)NO)cc4)CC3)cc2)c(C(C)C)s1 [Example 181, N-hydroxy-4-(3-[4-(3-(4-(5-isopropyl-2-methyl-1,3-thiazol-4-yl)-phenoxy)-propyl)-piperazin-1-yl]-propoxy)-benzamidine] | – | 54.1% | Survival rates of the cells ([4]; MC3T3-E1 cells): 99.5%; Survival rates of the cells ([4]; ST2 cells): 36.7%
12 | Cc1nc(-c2ccc(OCC=CCOc3ccc(C(=N)NO)cc3)cc2)c(C(C)C)s1 [Example 184, N-hydroxy-4-(4-[4-(5-isopropyl-2-methyl-1,3-thiazol-4-yl)-phenoxy]-2-butenyloxy)-benzamidine] | 147% | 74.5% | –
13 | Cc1nc(-c2ccc(OCc3ccc(COc4ccc(C(=N)NO)cc4)cc3)cc2)c(C(C)C)s1 [Example 185, N-hydroxy-4-(4-[4-(5-isopropyl-2-methyl-1,3-thiazol-4-yl)-phenoxymethyl]-benzyloxy)-benzamidine] | 152% | 89.4% | Changes on the lung weight, Absolute [3]: 0.116 ± 0.003 g; Changes on the lung weight, Relative (%) [3]: 0.720 ± 0.061%; Total leukocytes in peripheral blood (×10^3/1 mm^3) [3]: 11.90 ± 1.45 # ×10^3/1 mm^3; Total leukocytes in BALF (×10^5/1 ml) [3]: 66.47 ± 7.41 # ×10^5/1 ml
14 | Cc1nc(-c2ccc(OCCCCCOc3ccc(C(=N)NO)c(F)c3)cc2)c(C(C)C)s1 [Example 187, N-hydroxy-2-fluoro-4-(5-[4-(5-isopropyl-2-methyl-1,3-thiazol-4-yl)-phenoxy]-pentoxy)-benzamidine] | 117% | 92.5% | –
15 | Cc1nc(-c2ccc(OCCCCCOc3ccc(C(=N)NO)c(O)c3)cc2)c(C(C)C)s1 [Example 188, 2,N-dihydroxy-4-(5-[4-(5-isopropyl-2-methyl-1,3-thiazol-4-yl)-phenoxy]-pentoxy)-benzamidine] | 92% | 82.6% | –
